Several values for one entry are separate records, joined by “and”; a condition that tells them apart may be missing. Equal entries are not always repeated.
Experiments:
[1] = system: LNCaP androgen-sensitive human prostate adenocarcinoma cells; assay: Apo-ONE Homogenous Caspase-3/7 Assay in LNCaP cells; assay type: cell-based
Method: (§1) FIG. 1. Depicts the in vitro effects of 1-O-octadecyl-2-O-methyl-glycero-3-phosphocholine (final concentration 10 μM), (ionizing) radiation (absorbed dose of 5 Gray units; indicated as “RT”), and a combination thereof on programmed cell death (apoptosis) and the survival rate of LNCaP androgen-sensitive human prostate adenocarcinoma cells. Apoptosis was determined using the Apo-ONE™ Homogenous Caspase-317 Assay, Promega, Inc., Madison, Wis., USA according to the manufacturers instructions. The percentage of living cancer cells was estimated by means of trypan blue dye exclusion as described (Freshney, R. I. (1994) Culture of Animal Cells: A Manual of Basic Technique. 3rd Ed. Wiley-Liss. New York. USA). The cells were exposed to radiation six hours after (FIG. 1A), concomitantly with (FIG. 1B), or six hours before administration of 1-O-octadecyl-2-O-methyl-glycero-3-phospho-choline (FIG. 1C). The caspase assay was performed 12 hours after exposure to radiation. The respective data shown represent the average of two independent experiments.
(§2) First, the in vitro effects of 1-O-octadecyl-2-O-methyl-glycero-3-phosphocholine, (ionizing) radiation, and a combination thereof on programmed cell death (apoptosis) and the survival rate of LNCaP androgen-sensitive human prostate adenocarcinoma cells were measured. The LNCaP cell line was established from a metastatic lesion of the adenocarcinoma. The cells were treated with a final concentration of 10 μM 1-O-octadecyl-2-O-methyl-glycero-3-phosphocholine and (ionizing) radiation corresponding to an absorbed dose of 5 Gray units.
(§3) Apoptosis was determined using the Apo-ONE™ Homogenous Caspase-3/7 Assay, Promega, Inc., Madison, VV1, USA according to the manufacturers instructions. The percentage of living tumor cells was estimated by means of trypan blue dye exclusion as described (Freshney, R. I. (1994) Culture of Animal Cells: A Manual of Basic Technique. 3rd Ed. Wiley-Liss. New York. USA)
(§4) The cells were exposed to radiation six hours after (FIG. 1A), concomitantly with (FIG. 1B), or six hours before administration of 1-O-octadecyl-2-O-methyl-glycero-3-phospho-choline (FIG. 1C). The caspase assay was performed 12 hours after exposure to radiation. The respective data shown represent the average of two independent experiments.
(§5) In a further approach, 10 μM 1-O-octadecyl-2-O-methyl-glycero-3-phosphocholine (final concentration; “CHEM”) and (ionizing) radiation (5 Gray units; “RT”) were administered simultaneously to the LNCaP cells but the subsequent incubation period was extended to 24 hours. Apoptosis was measured using the Apo-ONE™ Homogenous Caspase-3/7 Assay as described above and expressed as relative fluorescence units (RFLU). The percentage of apoptotic cells was determined by flow cytometric analysis of annexin V-PE positive-stained and 7-AAD (7-Amino ActinomycinD) negative-stained cells (both purchased from BD Biosciences, San Jose, Calif., USA) according to established standard protocols. The data represent means±SEM from three independent experiments.
(§6) Apoptosis was measured using the Apo-ONE™ Homogenous Caspase-3/7 Assay as described above and expressed as relative fluorescence units (RFLU). The percentage of apoptotic cells was determined via annexin V-PE/7-AAD staining as described above. The caspase-317 assay and annexin staining were performed 22 hours after CHEM treatment.

LNCaP cells = assay: flow cytometric analysis of annexin V-PE positive / 7-AAD negative LNCaP cells; assay type: cell-based, human
Method: as §5
Next, the interaction of 1-O-octadecyl-2-O-methyl-glycero-3-phosphocholine administration (“CHEM”) and androgen deprivation (“AD”) was investigated. LNCaP cells were deprived of androgen for two days by charcoal absorption of serum according to established procedures well known in the art. CHEM was added in a final concentration of 5 μM and 10 μM, respectively.
as §6

LN-18 = assay: WST-1 proliferation assay, LN-18; assay type: cell-based; conditions: Homo sapiens
Method: (§7) 2000 cells were plated in each well of 96-well flat bottom plates, and incubated overnight at 37 °C in 5% CO2. The growth of plated cells was measured by adding […] of WST-1 reagent (Roche Applied Sciences, Germany) to 3 control wells and measuring the absorbance at 650 nm and at 450 nm, respectively, with a SpectraMax250 plate reader. […] After this incubation, VVST-1 reagent was added to the wells and OD650-OD450 values were calculated as before. six wells were assayed for each conditions and standard deviation was determined: all experiments were performed at least three times independently. […] Six different concentrations of each drug were used in combinations index measurements and compared to +/− cells, and compared to controls without compound.

[2] = system: LNCaP androgen-sensitive human prostate adenocarcinoma cells; assay: trypan blue dye exclusion, living LNCaP cells; assay type: cell-based
Method: as §1, §2, §3, §4

A549 (FAS negative) = assay: WST-1 proliferation assay, A549; assay type: cell-based, human; conditions: single agent, per experiment line
Method: as §7, with “DDP and GMZ” for “Six different concentrations of each drug”, “both purchased from Sigma-aldrich Corp., St. Louis, Mo., USA. The following cell lines were used: A549 (FAS negative), NCI-H460 (FAS positive),” for “used in combinations index measurements”, “HCC827 (FAS positive), all obtained from the ATTC, Rockville, Md., USA.” for “compared to +/− cells, and compared to controls without compound.”

[3] = AD + R1881 (two days prior) + 5 μM CHEM
[4] = AD + R1881 (two days prior) + 10 μM CHEM
[5] = CHEM 10 μM + RT 5 Gray simultaneously, 24 hours, means±SEM, p < 0.0001 vs CHEM and RT
[6] = Contr. + 10 μM CHEM, 22 hours after CHEM

CCCCCCCCCCCCCCCCCCOCC(COP(=O)([O-])OCC[N+](C)(C)C)OC (racemic) [AP-121, 1-O-octadecyl-2-O-methyl-glycero-3-phosphocholine]
increase in apoptotic response (caspase-3/7 assay) ([1]; 10 μM administered six hours prior to radiation (5 Gray), combined treatment (FIG. 1A)): > 2.5 fold | extent of apoptosis, increase in cells only exposed to the chemical as compared to the combined treatment ([1]; 10 μM, radiation six hours before (FIG. 1C)): about 25% | Caspase-3/7 activity (RFLU) ([1]; AD (androgen deprivation, two days) + 5 μM CHEM, AD alone 81): 126 RFLU | Caspase-3/7 activity (RFLU) ([1]; AD + 10 μM CHEM): 115 RFLU | Caspase-3/7 activity (RFLU) [1, 3]: 453 RFLU | Caspase-3/7 activity (RFLU) [1, 4]: 962 RFLU | Caspase-3/7 activity (RFLU) [1, 5]: 1514 ± 102 RFLU | Caspase-3/7 activity (RFLU) ([1]; CHEM 10 μM alone, 24 hours, means±SEM, three experiments, Control 193 ± 39): 580 ± 207 RFLU | Caspase-3/7 activity (RFLU) ([1]; Contr. + 5 μM CHEM, 22 hours after CHEM, Contr. 235): 380 RFLU | Caspase-3/7 activity (RFLU) [1, 6]: 436 RFLU | % Annexin V-PE pos. cells (LNCaP cells; AD (androgen deprivation, two days) + 5 μM CHEM, AD alone 12.6): 15.4% | % Annexin V-PE pos. cells (LNCaP cells; AD + 10 μM CHEM): 27.4% | % Annexin V-PE pos. cells (LNCaP cells; [3]): 14.6% | % Annexin V-PE pos. cells (LNCaP cells; [4]): 21.6% | % Annexin V-PE pos. cells (LNCaP cells; [5]): 31.7 ± 1.0 % | % Annexin V-PE pos. cells (LNCaP cells; CHEM 10 μM alone, 24 hours, means±SEM, three experiments, Control 3.6 ± 0.2): 18.6 ± 1.0% | % Annexin V-PE pos. cells (LNCaP cells; Contr. + 5 μM CHEM, 22 hours after CHEM, Contr. 9.6): 13.0% | % Annexin V-PE pos. cells (LNCaP cells; [6]): 17.5% | apoptotic response (LNCaP cells; androgen-deprived LNCaP cells, 5 and 10 μM, not reversed by synthetic androgen): dose-dependent significant increase | IC50 (LN-18): 1.3 µM | survival of the cells ([2]; 10 μM administered six hours after radiation (5 Gray), combined treatment (FIG. 1C)): about 40% | survival of the tumor cells ([2]; 10 μM administered six hours prior to radiation (5 Gray), combined treatment, untreated controls about 85% (FIG. 1A)): about 45% | survival rate ([2]; 10 μM concomitant with radiation (5 Gray), untreated controls about 86% (FIG. 1B)): about 55% | survival rate ([2]; 10 μM, individual chemical treatment (FIG. 1B)): about 50% | survival rate ([2]; 10 μM, individual chemical treatment (FIG. 1C)): about 45% | survival rate ([2]; 10 μM, individual treatment without radiation (FIG. 1A)): about 60% | IC50 (A549 (FAS negative); A549): 6 µM and 6.9 µM | IC50 (A549 (FAS negative); Homo sapiens, A549, A549): 8 µM

Source: patent publication US8324188B2, “Combinations of ET-18-O-CH3and anti-cancer agents for the treatment of cancer” (priority 2006, dated 2012)
